Reference: patent publication US20260274895A1, “DE NOVO DESIGNED MEMBRANE-TRAVERSING AND ORALLY BIOAVAILABLE MACROCYCLES” (UNIVERSITY OF WASHINGTON, priority 2022, published 2026)
Values joined by “and” are separate entries in the source; they are usually repeats but may differ in a detail not shown here. Identical values can stand only once. Where a SMILES comes first, the peptide text is derived from it. [ ]: non-standard residue; d: D form. NMeL = CN[C@@H](CC(C)C)C(=O)O; dNMeL = CN[C@H](CC(C)C)C(=O)O; NMeA = CN[C@@H](C)C(=O)O; dNMeA = CN[C@H](C)C(=O)O

Key:
[1] = PAMPA, PAMPA_Papp_Avg (apparent permeability)
[2] = Pharmacokinetics of D10.1 after PO, SQ and IV dosing in mice
[3] = PO 12.2 mg/kg, individual mice, 12.2 mg/kg
[4] = female, Balb/C, mouse, plasma, po, 12.2 mg/kg
[5] = female, Balb/C, mouse, plasma, sc, 12.2 mg/kg

CC(C)[C@@H]1C(=O)N[C@@H](Cc2ccccc2)C(=O)N2CCC[C@H]2C(=O)N(C)[C@H](Cc2ccccc2)C(=O)N[C@H](C)C(=O)N2CCC[C@H]2C(=O)N1C (single isomer, unassigned) [Design D6.8.p1, *faP*vFP]
Papp [1]: 3.47 ×10⁻⁶ cm/s

CC(C)C[C@H]1C(=O)N2CCC[C@@H]2C(=O)N[C@@H](Cc2ccccc2)C(=O)N2CCC[C@H]2C(=O)N[C@H](C(C)C)C(=O)N[C@H](Cc2ccccc2)C(=O)N1C (single isomer, unassigned) [Design D6.9.p1, vf*LpFP]
Papp [1]: 5.29 ×10⁻⁶ cm/s

CC(C)C[C@H]1NC(=O)[C@H]2CCCN2C(=O)[C@@H]2CCCN2C(=O)[C@@H](Cc2ccccc2)NC(=O)[C@@H](C(C)C)NC(=O)[C@H](CC(C)C)N(C)C(=O)[C@@H](Cc2ccccc2)NC1=O (single isomer, unassigned) [Design D7.7.p2, Pplf*Lvf]
Papp [1]: 9.06 ×10⁻⁶ cm/s

CC[C@H](C)[C@@H]1NC(=O)[C@H](Cc2ccccc2)NC(=O)[C@H]2CCCN2C(=O)[C@H]([C@@H](C)CC)NC(=O)[C@H](C(C)C)NC(=O)[C@@H](C)NC(=O)[C@H]2CCCN2C1=O (single isomer, unassigned) [Design D7.8.p2, VIpFIpa]
Papp [1]: 4.92 ×10⁻⁶ cm/s

CC(C)C[C@@H]1NC(=O)[C@@H](C(C)C)NC(=O)[C@H](CC(C)C)N(C)C(=O)[C@H]2CCCN2C(=O)[C@@H](C(C)C)NC(=O)[C@H]2CCCN2C(=O)[C@@H](C(C)C)NC(=O)[C@@H](Cc2ccccc2)N(C)C(=O)[C@H](CC(C)C)N(C)C1=O (single isomer, unassigned) [Design D9.8.p2, *LvL*L*fvpvp]
Papp [1]: 0.255 ×10⁻⁶ cm/s

CC[C@H](C)[C@@H]1NC(=O)[C@@H](CC(C)C)NC(=O)[C@H](CC(C)C)N(C)C(=O)[C@H](Cc2ccccc2)NC(=O)CN(C)C(=O)[C@@H]2CCCN2C(=O)[C@H](C(C)C)NC(=O)[C@H](Cc2ccccc2)N(C)C(=O)[C@H]2CCCN2C(=O)[C@H](CC(C)C)NC1=O (single isomer, unassigned) [Design D10.1.p1, lILp*FVP*GF*L]
Papp [1]: 3.92 ×10⁻⁶ cm/s

CC(C)C[C@@H]1NC(=O)[C@H](Cc2ccccc2)NC(=O)[C@@H](CC(C)C)NC(=O)[C@H]2CCCN2C(=O)[C@H](C(C)C)NC(=O)[C@@H](CC(C)C)NC(=O)[C@H]2CCCN2C(=O)[C@@H]2CCCN2C1=O [Design D8.5, FLPplVpl] (cyclo(FLP[dP][dL]V[dP][dL]))
Papp [1]: 6.31 ×10⁻⁶ cm/s

CC[C@H](C)[C@@H]1NC(=O)[C@@H](C)N(C)C(=O)[C@H]2CCCN2C(=O)[C@H]2CCCN2C(=O)[C@H](Cc2ccccc2)NC(=O)[C@@H](CC(C)C)NC(=O)[C@@H](CC(C)C)N(C)C(=O)[C@@H]2CCCN2C1=O [Design D8.17, P*llFpp*aI] (cyclo(F[dP][dP][dNMeA]IP[dNMeL][dL]))
Papp [1]: 0.95 ×10⁻⁶ cm/s

CC(C)C[C@H]1NC(=O)[C@H]2CCCN2C(=O)[C@H](CC(C)C)N(C)C(=O)[C@@H](C)N(C)C(=O)[C@@H](Cc2ccccc2)NC(=O)[C@@H](C(C)C)NC(=O)[C@H]2CCCN2C(=O)[C@@H](CC(C)C)NC1=O [Design D8.19, f*a*Lpllpv] (cyclo([NMeL][dP][dL][dL][dP][dV][dF][dNMeA]))
Papp [1]: 0.626 ×10⁻⁶ cm/s

CC[C@H](C)[C@@H]1NC(=O)[C@H]2CCCN2C(=O)[C@@H]2CCCN2C(=O)[C@@H](C(C)C)NC(=O)[C@@H](C)N(C)C(=O)[C@H](C)N(C)C(=O)[C@@H](CC(C)C)N(C)C(=O)[C@@H](C(C)C)NC1=O [Design D8.26, v*l*A*avPpI] (cyclo(I[dV][dNMeL][NMeA][dNMeA][dV]P[dP]))
Papp [1]: 0.544 ×10⁻⁶ cm/s

CC[C@H](C)[C@@H]1NC(=O)[C@H](CC(C)C)N(C)C(=O)[C@H]2CCCN2C(=O)[C@H]2CCCN2C(=O)[C@H](Cc2ccccc2)NC(=O)[C@@H](CC(C)C)NC(=O)[C@H]2CCCN2C(=O)[C@@H]2CCCN2C1=O [Design D8.27, Fpp*LIPpl] (cyclo(F[dP][dP][NMeL]IP[dP][dL]))
Papp [1]: 0.315 ×10⁻⁶ cm/s

CSCC[C@@H]1NC(=O)[C@@H]2CCCN2C(=O)[C@@H](C(C)C)NC(=O)[C@@H](C)N(C)C(=O)[C@@H](CC(C)C)NC(=O)[C@@H](CC(C)C)NC(=O)[C@@H]2CCCN2C(=O)[C@H]2CCCN2C1=O [Design D8.29, MpPll*avP] (cyclo([dL][dL][dNMeA][dV]PM[dP]P))
Papp [1]: 0.236 ×10⁻⁶ cm/s

CC(C)C[C@@H]1C(=O)N[C@H](CC(C)C)C(=O)N2CCC[C@@H]2C(=O)N2CCC[C@@H]2C(=O)N(C)[C@@H](CC(C)C)C(=O)N[C@H](CC(C)C)C(=O)N2CCC[C@@H]2C(=O)N2CCC[C@H]2C(=O)N1C [Design D8.32, pp*LlpP*ll] (cyclo([dNMeL][dL][dP][dP][NMeL][dL][dP]P))
Papp [1]: 5.23 ×10⁻⁶ cm/s

CC[C@H](C)[C@@H]1NC(=O)[C@@H](CC(C)C)NC(=O)[C@H](CC(C)C)N(C)C(=O)[C@H](Cc2ccccc2)NC(=O)CN(C)C(=O)[C@@H]2CCCN2C(=O)[C@H](C(C)C)NC(=O)[C@H](Cc2ccccc2)N(C)C(=O)[C@H]2CCCN2C(=O)[C@H](CC(C)C)NC1=O [Design D10.1, lILp*FVP*GF*L]
Half-life T1/2 ([2]; IV ([…] per Table 12), mean ±): 1.123 ± 0.113 h
Volume of distribution @ steady state VSS ([2]; IV ([…] per Table 12), mean ±): 0.25 ± 0.08 L/kg
Volume of distribution during elimination phase VZ ([2]; IV ([…] per Table 12), mean ±): 0.32 ± 0.07 L/kg
Plasma level ([2]; PO 12.2 mg/kg, 15 min, AVG): 2.58 µM
Plasma level ([2]; PO 12.2 mg/kg, 15 min, individual mice, 12.2 mg/kg): 2.22 µM and 3.26 µM and 2.26 µM
Plasma level ([2]; PO 12.2 mg/kg, 30 min, AVG): 2.92 µM
Plasma level ([2]; PO 12.2 mg/kg, 30 min, individual mice, 12.2 mg/kg): 2.49 µM and 3.64 µM and 2.64 µM
Plasma level ([2]; PO 12.2 mg/kg, 60 min, AVG): 1.78 µM
Plasma level ([2]; PO 12.2 mg/kg, 60 min, individual mice, 12.2 mg/kg): 1.57 µM and 2.14 µM and 1.64 µM
Plasma level ([2]; PO 12.2 mg/kg, 120 min, AVG): 0.72 µM
Plasma level ([2]; PO 12.2 mg/kg, 120 min, individual mice, 12.2 mg/kg): 0.54 µM and 0.8 µM and 0.81 µM
Plasma level ([2]; PO 12.2 mg/kg, 240 min, AVG): 0.16 µM
Plasma level ([2]; PO 12.2 mg/kg, 240 min, individual mice, 12.2 mg/kg): 0.13 µM and 0.18 µM and 0.17 µM
Plasma level ([2]; PO 12.2 mg/kg, 360 min, AVG): 0.07 µM
Plasma level ([2]; PO 12.2 mg/kg, 360 min, individual mice, 12.2 mg/kg): 0 μM and 0.1 μM (2×)
Plasma level ([2]; PO 12.2 mg/kg, 1440 min, AVG): 0 µM
Plasma level ([2]; PO 12.2 mg/kg, 1440 min, individual mice): 0 µM
AUC0-t ([2]; PO 12.2 mg/kg, AVG): 270.4 µmol·min/L
AUC0-∞ ([2]; PO 12.2 mg/kg, AVG): 279.94 µmol·min/L
CI/F ([2]; PO 12.2 mg/kg, AVG): 0.000785 L/min
Cmax ([2]; PO 12.2 mg/kg, AVG): 2920 nM
Tmax ([2]; PO 12.2 mg/kg, individual mice): 0.5 h
AUC0-t [2, 3]: 216.96 µmol·min/L and 327.78 µmol·min/L and 266.45 µmol·min/L
AUC0-∞ [2, 3]: 226.62 µmol·min/L and 337.03 µmol·min/L and 276.18 µmol·min/L
CI/F [2, 3]: 0.000944 L/min and 0.000635 L/min and 0.000775 L/min
Cmax [2, 3]: 2490 nM and 3640 nM and 2640 nM
T1/2 [2, 3]: 0.8313 h and 1.051 h and 1.132 h
Apparent clearance CI/F ([2]; PO (12.2 mg/kg per Table 10), mean): 0.000785 L/min
Half-life T1/2 ([2]; PO (12.2 mg/kg per Table 10), mean ±): 1.005 ± 0.156 h
Oral bioavailability F ([2]; PO, IV dosing as reference, mean ±): 7.48 ± 1.79%
Plasma level ([2]; SQ 12.2 mg/kg, 15 min, AVG): 2.53 µM
Plasma level ([2]; SQ 12.2 mg/kg, 15 min, individual mice): 1.39 µM and 2.44 µM and 3.75 µM
Plasma level ([2]; SQ 12.2 mg/kg, 30 min, AVG): 3.55 µM
Plasma level ([2]; SQ 12.2 mg/kg, 30 min, individual mice): 1.81 µM and 3.69 µM and 5.15 µM
Plasma level ([2]; SQ 12.2 mg/kg, 60 min, AVG): 3.93 µM
Plasma level ([2]; SQ 12.2 mg/kg, 60 min, individual mice): 1.87 µM and 4.88 µM and 5.03 µM
Plasma level ([2]; SQ 12.2 mg/kg, 360 min, AVG): 2.29 µM
Plasma level ([2]; SQ 12.2 mg/kg, 360 min, individual mice): 2.4 µM and 2.19 µM
Plasma level ([2]; SQ 12.2 mg/kg, 1440 min, AVG): 0.01 µM
Plasma level ([2]; SQ 12.2 mg/kg, 1440 min, individual mice): 0 μM (2×) and 0.03 μM
AUC0-t ([2]; SQ 12.2 mg/kg, AVG): 1879.54 µmol·min/L
AUC0-∞ ([2]; SQ 12.2 mg/kg, AVG): 2867.17 µmol·min/L
CI/F ([2]; SQ 12.2 mg/kg, AVG): 7.96e-05 L/min
Cmax ([2]; SQ 12.2 mg/kg, AVG): 4140 nM
T1/2 ([2]; SQ 12.2 mg/kg, AVG): 3.7563 h
Tmax ([2]; SQ 12.2 mg/kg, AVG): 2.5 h
AUC0-t ([2]; SQ 12.2 mg/kg, individual mice): 730.93 µmol·min/L and 3578.6 µmol·min/L and 1329.09 µmol·min/L
AUC0-∞ ([2]; SQ 12.2 mg/kg, individual mice): 3585.94 µmol·min/L and 2148.41 µmol·min/L
CI/F ([2]; SQ 12.2 mg/kg, individual mice): 5.97e-05 L/min and 9.96e-05 L/min
Cmax ([2]; SQ 12.2 mg/kg, individual mice): 2400 nM and 4880 nM and 5150 nM
T1/2 ([2]; SQ 12.2 mg/kg, individual mice): 3.1823 h and 4.3302 h
level at time molar at 0.25 h [2, 4]: 2580 ± 590 nM
level at time molar at 0.5 h [2, 4]: 2920 ± 630 nM
level at time molar at 1 h [2, 4]: 1780 ± 310 nM
level at time molar at 2 h [2, 4]: 720 ± 150 nM
level at time molar at 4 h [2, 4]: 160 ± 30 nM
level at time molar at 6 h [2, 4]: 70 ± 60 nM
CL/F [2, 5]: 0.0796 mL/min
level at time molar at 0.25 h [2, 5]: 2530 ± 1180 nM
level at time molar at 0.5 h [2, 5]: 3550 ± 1670 nM
level at time molar at 1 h [2, 5]: 3930 ± 1780 nM
level at time molar at 6 h [2, 5]: 2290 ± 150 nM
level at time molar at 24 h [2, 5]: 10 ± 20 nM
bioavailability ([2]; mouse, in vivo): 7.5 to 11%
Cmax ([2]; mouse, in vivo, sc, 12.2 mg/kg): 4140 ± 1510 nM
Tmax ([2]; mouse, in vivo, sc, 12.2 mg/kg): 2.5 h
half-life ([2]; mouse, in vivo, sc, 12.2 mg/kg): 3.76 ± 0.812 h
